Where “and” joins values, the source holds several entries; their conditions need not be identical. Equal entries are not always repeated.
Experiments:
CepR [1] = molecular target: T1, CepR (Burkholderia cenocepacia, UniProt B4EMD0); experiment: CepR agonism in E. coli β-galactosidase reporter (Ec-reporter) JLD271 [pJN105-cepR + pSC11-cepI]; assay type: cell-based, B. cenocepacia; settings: for Maximal Activation (%): activity for 100 μM C8-AHL set to 100%, error ±10%
T1 sequence (B4EMD0 1-239): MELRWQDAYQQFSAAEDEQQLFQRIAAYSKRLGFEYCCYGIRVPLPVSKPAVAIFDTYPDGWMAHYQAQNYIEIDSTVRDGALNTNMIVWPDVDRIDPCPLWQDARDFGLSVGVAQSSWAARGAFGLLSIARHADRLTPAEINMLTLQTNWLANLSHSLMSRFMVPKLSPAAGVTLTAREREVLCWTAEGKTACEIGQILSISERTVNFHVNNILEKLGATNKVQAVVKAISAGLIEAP
Description: (§1) We began our study by screening the AHL library for CepR modulators using an E. coli-based two plasmid reporter system (Ec-reporter)[38]–[40]. Certain members of the Bcc harbor additional QS systems that are either AHL-based (e.g., BviI/BviR in B. vietnamiensis)[41] or diffusible signal factor (DSF)-based (B. cenocepacia)[42], and at least one member of the Bcc has multiple receptors that respond to C8-AHL (e.g., CepR and CepR2 in B. cenocepacia)[43]. Thus, we reasoned that using a CepR reporter in a heterologous background could simplify our initial analyses. We modified our previously reported E. coli-based two plasmid β-galactosidase reporter system to develop a CepR Ec-reporter (see Methods). The first plasmid, pJN105-cepR, contains CepR from B. cenocepacia under the control of the L-arabinose inducible pBAD promoter. A second plasmid contains a transcriptional fusion of lacZ to the cepI promoter region. The two plasmids were co-transformed into a QS mutant E. coli strain (JLD271 ∆sdiA) that lacks its LuxR-type receptor, SdiA. Using this reporter system, if an exogenously -added compound is able to interact with CepR, this will affect the protein’s interaction with the cepI promoter region and alter β-galactosidase production. Enzyme production, and thereby CepR activity, is then measurable via the degradation of a colorimetric substrate for β-galactosidase. Using this new Ec-reporter, we observed robust activity of CepR in response to its native ligand C8-AHL, with an EC50 of 5 nM (Table 1).
We used the CepR Ec-reporter to perform a primary agonism screen at a single compound concentration (100 μM, or its solubility limit, indicated in Table S1). Thirty-one compounds displaying ≥70% agonistic activity in CepR (relative to C8-AHL) were identified and subjected to dose-response analyses using the Ec-reporter (Table I; see Table S2 for complete screening data and Fig. S3 for dose-response curves).
(§2) E. coli β-galactosidase reporter assays (derived from ref.[63]) and reagents used to obtain primary screening and dose-response data were performed as previously described[22],[60],[64], with the following modifications: E. coli JLD271 (∆sdiA) was co-transformed iteratively with pSC11-cepI and pJN105-cepR via electroporation. A single colony was used to start overnight cultures in LB medium + ampicillin (100 μg/mL) + gentamicin (15 μg/mL). A 1:10 dilution of overnight culture was grown in fresh medium to OD600 = 0.25. A sterile solution of L-arabinose in water (27 mM final concentration) was added to induce protein expression, after which cells were plated in 96-well plates containing varying concentrations of compound (200 μL total volume).
(§3) Cells were grown for 4 h, OD600 was read, 50 μL aliquots from each well were permeabilized in 200 μL Z Buffer, and then 150 μL of this mixture used to measure the cleavage of 25 μL of 4 mg/mL CPRG in phosphate buffered saline (PBS) at 37 °C until positive control wells developed a deep red color (~30 min). For all agonism assays, synthetic compound (100 μM) was screened alongside and compared to the native ligand, C8-AHL (100 μM). For all primary and dose-response antagonism assays, the concentration of native ligand utilized was 10 nM (approximately equal to twice its EC50 value). […] At least 3 separate trials were performed using unique cultures on separate days.

CepR [2] = molecular target: T1, CepR; experiment: CepR antagonism in E. coli β-galactosidase reporter (Ec-reporter), competition against C8-AHL; assay type: cell-based, B. cenocepacia; settings: for Inh% (100-Act%): Table S3, Ec-reporter; for CepR antagonism in words: Ec-reporter
Description: as §1
To identify antagonists of CepR, we screened the AHL library (at 100 μM) in competition against the native ligand C8-AHL (at approximately twice its EC50 value, 0.01 μM) in the Ec-reporter. […] The active compounds were subjected to dose-response analyses in the Ec-reporter to obtain IC50 values and assess their relative potencies (Table 2; see Table S3 for complete screening data and Fig. S3 for dose-response curves). One general trend that we noted at the outset was the majority of the antagonists had acyl tails of similar or shorter overall length than CepR’s native ligand, C8-AHL. From this set, the strongest antagonists could be divided into two classes: (i) “short alkyl tail” AHLs or analogs thereof, and (ii) phenylacetanoyl HLs (PHLs). The discovery that the latter compounds were CepR antagonists was perhaps not surprising, as we have found substituted PHLs to strongly antagonize the majority of the LuxR-type receptors studied in our laboratory to date[22],[24],[29],[45],[46].
as §2, §3

[3] = Table S2, Ec-reporter, screening conc. 100 μM
[4] = screening conc. 100 μM, against 10 nM C8-AHL
[5] = Ec-reporter, agonism dose-response

| SMILES | Act% (CepR [1]; [3]) | Inh% (100-Act%) (CepR [2]; [4]) | further results |
| --- | --- | --- | --- |
| O=C(Cc1ccc(SC(F)(F)F)cc1)N[C@H]1CCOC1=O [Compound E8] | 14% | 0.0% |  |
| COc1ccc(CC(=O)NC2CCSC2=O)cc1 (centres unmarked) [Compound F12] | 2.4% | -20% |  |
| O=C(N[C@H]1CCOC1=O)c1ccc(Br)cc1 [Compound B6] | 56% | 18% |  |
| O=C(CCc1cccc([N+](=O)[O-])c1)N[C@H]1CCOC1=O [Compound E38] | 93% | -10% | EC50 (CepR [1]; [5]): 660 nM; Maximal Activation (%) (CepR [1]; Ec-reporter): 93% |
| CCCCCCCCCC(=O)N[C@H]1CCOC1=O [Compound C10-AHL, decanoyl L-homoserine lactone, reference compound] | 87% | -30% | EC50 (CepR [1]; [5]): 109 nM and 110 nM; Maximal Activation (%) (CepR [1]; Ec-reporter): 87% |
| O=C(Cc1ccc(O)cc1)N[C@H]1CCOC1=O [Compound C23] | -0.5% | -10% |  |
| O=C(Cc1ccccc1)NC1CCCC1 [Compound F16] | 7.4% | -30% |  |
| COc1cccc(OCC(=O)N[C@H]2CCOC2=O)c1 [Compound E18] | 30% | 0.0% |  |
| CCCCCCCCS(=O)(=O)N[C@H]1CCOC1=O [Compound A13] | 108% | 17% | CepR agonism in words (CepR [1]; Ec-reporter): failed to activate CepR; EC50 (CepR [1]; [5]): 150 nM; Maximal Activation (%) (CepR [1]; Ec-reporter): 110% |
| O=C(N[C@H]1CCOC1=O)c1ccc(-c2ccccc2)cc1 [Compound Q12] | 111% | -70% |  |
| O=C(N[C@H]1CCOC1=O)c1ccccc1 [Compound B8] | 10% | 1.0% |  |
| [N-]=[N+]=Nc1ccc(CC(=O)N[C@H]2CCOC2=O)cc1 [Compound C17] | 1.0% | 26% |  |
| O=C(Cc1cccc([N+](=O)[O-])c1)Nc1cccc([N+](=O)[O-])c1 [Compound F55] | 25% | 13% | CepR antagonism in words (CepR [2]): dramatic losses in activity |
| Cc1cccc(CCC(=O)N[C@H]2CCOC2=O)c1 [Compound E27] | 75% | -10% | EC50 (CepR [1]; Table S2, Ec-reporter): 850 nM |
| O=C(Cc1ccc(Br)cc1)N[C@@H]1CCOC1=O [Compound B4] | -0.5% | 0.0% |  |
| O=C(Cc1ccccc1)N[C@H]1CCOC1=O [Control 5, reference compound] |  | 11% | Act% (CepR [1]; Table S2, Ec-reporter, screening conc. 100 μM, listed as Co n tro l 5): 9.8% |
| O=C(Cc1cccc(F)c1)N[C@H]1CCOC1=O [Compound C3] | 0.2% | 20% | CepR antagonism in words (CepR [2]): inactive as antagonists |
| CCCCCCCCCC(=O)CC(=O)Nc1cccc(OC)c1 [Control 13, reference compound] | 2.0% | 13% |  |
| CCCCCCCC(=O)CC(=O)N[C@H]1CCOC1=O [3’O-C10-AHL, reference compound] | 110% | -60% | EC50 (CepR [1]; Table S2, Ec-reporter): 2300 nM |
| CCCCCCCCCCCCn1nnc(CC(=O)O)n1 [PD-12, reference compound] | -7.6% | -40% |  |
| O=C(N[C@H]1CCOC1=O)c1ccc(N=Nc2ccccc2)cc1 [Compound D20] |  |  | Act% (CepR [1]; Table S2, Ec-reporter, screening conc. 77 μM): 37%; Inh% (100-Act%) (CepR [2]; screening conc. 77 μM): 8.0% |
